In US11576979B2, “Pyrrolobenzodiazepine prodrugs and antibody conjugates thereof” (GENENTECH, INC., priority 2016, dated 2023):
Values joined by “and” are separate entries in the source; they are usually repeats but may differ in a detail not shown here. Equal entries are not always repeated. Where two headings read alike, the source gives them in different places.

What was measured:
HCT-116 = assay: CELLTITER GLO cell proliferation assay (Example 6); format: cell-based; settings: Homo sapiens, HCT-116; Table 4; read-out: IC50 potency HCT-116
Procedure: (§1) The toxicity of PBD monomer disulfide prodrugs and diaphorase prodrugs were evaluated against KPL-4, WSU-DLCL2, HCT-116, HCC1395 and Jurkat cell cultures. […] KPL-4 cells further have a high expression of DTD on the order of about 839 nRPKM (where nRPKM refers to normalized reads per Kb of transcript length per million mapped read).
(§2) Potency of the disulfide and DT-diaphorase prodrugs was measured by a cell proliferation assay employing the following protocol (CELLTITER GLO™ Luminescent Cell Viability Assay, Promega Corp.). First, an aliquot of 40 ul of cell culture containing about 8000 cells of WSU-DLCL2 cells (low NQO1 gene and GSH level), 4000 cells of KPL-4 (high NQO1 gene and GSH level), HCT-116 cells, HCC1395 cells or Jurkat cells in RPMI-1640 culture medium (supplemented with 10% fetal bovine serum, 2 mM glutamine, 50 uM cystine, and 0.015 g/L L-methionine) was deposited in each well of a 384-well flat clear bottom white polystyrene tissue culture-treated microplates (Corning, N.Y.). Second, control wells were prepared containing medium with and without cells. Third, compounds with and without disulfide or DT-diaphorase prodrugs (n=3) were added to the experimental wells using ECHO acoustic liquid handling technology (Labcyte Inc, Sunnyvale, Calif.) to create a 10-point dose-response curve in triplicate with 1:3× serial dilution. Fourth, cells were cultured in a humidified incubator set at 37° C. and maintaining an atmosphere of 5% CO2. Fifth, the plates were equilibrated to room temperature for approximately 30 minutes. Sixth, a volume of CELLTITER GLO™ Reagent equal to the volume of cell culture medium present in each well was added. Seventh, the contents were mixed for 10 minutes on an orbital shaker in the dark to induce cell lysis. Eighth, the plate was incubated at room temperature for 30 minutes to stabilize the luminescence signal. Ninth, luminescence was recorded and reported in graphs as % activity where RLU (relative luminescence units) was normalized to controls (no compound control minus no cell control). Tenth, data was plotted as individual points for each replicate (n=3) for each antibody as the mean of luminescence for each set of replicates, with standard deviation error bars.

WSU-DLCL2 = assay: CELLTITER GLO cell proliferation assay (Example 6); format: cell-based; settings: Homo sapiens, data in parenthesis = repeat evaluations
Procedure: as §1, §2

KPL-4 = assay: CELLTITER GLO cell proliferation assay (Example 6); format: cell-based; settings: data in parenthesis = repeat evaluations
Procedure: as §1, §2

SK-BR-3 = assay: CellTiter-Glo toxicity, 3 days (Example 7); format: cell-based; settings: Homo sapiens, SK-BR-3, 72 h
Procedure: The toxicity of PBD monomer disulfide prodrugs 1 to 4, PBD dimer disulfide prodrugs 1 and 4, PBD monomer control 1 and PBD dimer control 1 were evaluated against SK-BR-3 cell cultures. […] The HER2-positive breast cancer cell line, SK-BR-3, was obtained internally at Genentech after having been verified by sequence analysis. The cells were grown at 37 Celsius in DMEM+10% FBS supplemented with 2 mM L-glutamine for the duration of this assay. On the first day of the experiment, designated “Day −1”, SK-BR-3 cells were harvested from tissue culture flasks, counted, and then seeded into 96-well plates at a concentration of 7,500 cells per well. The next day, designated “Day 0”, cell culture media was removed from the cells and replaced with 100 uL of fresh media containing a serial dilution (1:3) of the compounds in Table 5 below. The plates were then returned to the 37 Celsius incubator and allowed to incubate for 3 days. On “Day 3” of the assay, the plates were removed from the incubator and allowed to equilibrate to room temperature before adding 100 uL of room-temperature CellTiter-Glo reagent (Promega). The plates were then agitated at 300 rpm for 10 minutes. The luminescence signal generated from this reaction was recorded on an Envision plate reader (Perkin-Elmer). The data were arranged in Excel (Microsoft) and graphed in Kaleidagraph (Synergy Software).

Igrov-1 = assay: CellTiter-Glo toxicity, 4 days (Example 9); format: cell-based; settings: Homo sapiens, IGROV-1, 96 h, 4 days of drug incubation; Table 7A
Procedure: (§3) The toxicity of various PBD monomer disulfide prodrugs and PBD dimer disulfide prodrugs was evaluated on UACC-257, Igrov-1 and A2058 cell lines. Cells were seeded in 384-well plate and treated with drug 24 hours later. After 4 days of drug incubation, the cell viability was determined using Promega CellTiter-Glo luminescent reagent, which measures ATP level (an indirect measure of cell number). The luminescent intensity was measured on PerkinElmer Envision reader. The relative cell viability was calculated by normalizing to non-drug treatment control and was graphed using KleidaGraph software package. IC50 value was determined as the concentration to obtain 50% of the maximum cell killing.

UACC-257 = assay: CellTiter-Glo toxicity, 4 days (Example 9); format: cell-based; settings: Homo sapiens, UACC-257, 96 h, 4 days of drug incubation; Table 7A
Procedure: as §3

[1] = tested on: double strand DNA Oligos 1 and 2; assay: DNA oligo binding, LC/MS/UV; settings: 100 uM compound, 100 uM DNA, 1 hour, 37 C
Procedure: For DNA binding determination, the compounds were incubated at 100 μM with 100 μM double strand DNA Oligos 1 and 2 for 1 hour in 10 mM Bis-Tris, pH 7.1 at 37° C. The single strand DNA Oligos (5′-TATAGAATCTATA-3′ and 3′-ATATCTTAGATAT-5′) were synthesized at Genentech. The samples were analyzed by LC/MS/UV (210-450 nm) on Sciex TripleTOF 5600 on a Hypersil Gold C18 column (100×2.1, 1.9 Thermo Scientific). The column was eluted at 0.4 mL/min by a gradient of buffer A (50 mM hexafluoro-isopropanol and 15 mM diisopropylethylamine) to buffer B (50% A and 50% of 1:1 methanol:acetonitrile), 5% 0-0.5 min, 5-25% B 0.5-25 min, 25-95% B 25-40 min, and to 95% B 40-42 min. The % remaining was an average of the starting DNA oligos remaining in incubations (n=2). The products were characterized by LC/MS in a negative ESI ion mode.

[2] = Disulfide cleavage by glutathione (GSH), LC/MS; format: physicochemical; settings: 15 uM compound, 4 mM GSH, pH 7.0, 37 C
Procedure: (§4) For disulfide cleavage determination, the compounds were incubated at 15 μM with 0.2 mM cysteine or 4 mM GSH in 100 mM Tris buffer pH 7.0 containing 5% methanol at 37° C. Aliquots were taken at specified time points and the samples were analyzed by LC/MS on Sciex TripleTOF 5600 on a Hypersil Gold C18 column (100×2.1, 1.9 Thermo Scientific). The column was eluted by a gradient of buffer A (0.1% formic acid in 10 mM ammonium acetate) to buffer B (0.1% formic acid in 10 mM ammonium acetate in 90% acetonitrile), 5% B 0-0.5 min, 5-25% B 0.5-8 min, 25-75% B 8-13 min, and 75-95% B 13-13.5 min, 95% B 13.5-14.5 min, 95-5% B 14.5-15 min at 0.4 mL/min. All products were separated and characterized by LC/MS/MS in a positive ESI ion mode. All analytes had the protonated molecular MH+ as the major species with little source fragmentation. Full scan accurate mass peak areas were used to estimate relative abundance of each component.

[3] = Disulfide cleavage by cysteine, LC/MS; format: physicochemical; settings: 15 uM compound, 0.2 mM cysteine, pH 7.0, 37 C
Procedure: as §4

A2058 = assay: CellTiter-Glo toxicity, 4 days (Example 9); format: cell-based; settings: Homo sapiens, A2058, 96 h, 4 days of drug incubation; Table 7A
Procedure: as §3

[4] = WSUDLCL2, read-out: IC50 potency WSU-DLCL2, Table 4
[5] = KPL4, read-out: IC50 potency KPL-4, Table 4

| SMILES | IC50 (HCT-116) [µM] | IC50 (WSU-DLCL2; WSUDLCL2, Table 4, read-out: IC50 potency WSU-DLCL2) [µM] | IC50 (KPL-4; KPL4, Table 4, read-out: IC50 potency KPL-4) [µM] | IC50 (SK-BR-3; 3 days, read-out: SK-BR-3 IC50) [nM] | IC50 (Igrov-1) [µM] | IC50 (UACC-257) [µM] | % DNA oligo remaining [1] [%] | IC50 (SK-BR-3; read-out: SK-BR-3 IC50 (nM)) [nM] | % Remaining at 24 h by GSH [2] | % Remaining at 24 h by Cys [3] [%] | IC50 (A2058) [µM] | IC50 (WSU-DLCL2; [4]) [µM] | IC50 (KPL-4; [5]) [µM] |
| --- | --- | --- | --- | --- | --- | --- | --- | --- | --- | --- | --- | --- | --- |
| C=C1C[C@H]2C=Nc3cc(OCCCCCOc4cc5c(cc4OC)C(=O)N4CC(=C)C[C@H]4C(O)N5C(=O)OCc4cn(C)c5c4C(=O)C(OC)=CC5=O)c(OC)cc3C(=O)N2C1 (stereo partly drawn) [PBD dimer diaphorase prodrug 3] | 0.00123 | 0.00024 | 0.00187 | – | – | – | – | – | – | – | – | – | – |
| C=C1C[C@H]2C=Nc3cc(OCCCCCOc4cc5c(cc4OC)C(=O)N4CC(=C)C[C@H]4C(O)N5C(=O)OCC4(SSCC)CCC4)c(OC)cc3C(=O)N2C1 (stereo partly drawn) [PBD dimer disulfide prodrug 1] | – | – | – | 2.39 | 0.00021 | 0.0022 | >99.5 | – | – | – | – | – | – |
| C=C1C[C@H]2C(O)N(C(=O)OCC3(SSCC)CCC3)c3cc(OCCCCCOc4cc5c(cc4OC)C(=O)N4CC(=C)C[C@H]4C(O)N5C(=O)OCC4(SSCC)CCC4)c(OC)cc3C(=O)N2C1 (stereo partly drawn) [PBD dimer disulfide prodrug 4] | – | – | – | – | 0.0025 | 0.0078 | – | 3.09 | – | – | – | – | – |
| C=C1C[C@H]2C(O)N(C(=O)OCCSSCC)c3cc(OC)c(OC)cc3C(=O)N2C1 (stereo partly drawn) [PBD monomer disulfide prodrug 1] | – | – | – | – | 0.123 | 0.276 | – | 331 | 0.5% | 17.9 | 0.0829 | 0.274 | 0.324 |
| C=C1C[C@H]2C(O)N(C(=O)OCCSSC(C)C)c3cc(OC)c(OC)cc3C(=O)N2C1 (stereo partly drawn) [PBD monomer disulfide prodrug 2] | – | – | – | – | 1.87 | 1.86 | – | 1760 | 0.4% and 0% | 77.6 | 0.635 | 1.02 | 0.497 |
| C=C1C[C@H]2C(O)N(C(=O)OCC3(SSCC)CCC3)c3cc(OC)c(OC)cc3C(=O)N2C1 (stereo partly drawn) [PBD monomer disulfide prodrug 3] | – | – | – | – | 0.254 | 0.356 | – | 616 | 2.90% | 73.5 | 0.0752 | 0.531 | 0.36 |
| C=C1C[C@H]2C(O)N(C(=O)OCC(C)(C)SSC(C)(C)C)c3cc(OC)c(OC)cc3C(=O)N2C1 (stereo partly drawn) [PBD monomer disulfide prodrug 4] | – | – | – | – | 12.6 | 19.2 | – | > 10000 | 99.9% | 99.9 | 8.11 | > 10 | > 10 |
